Tests used:
A-431 = test: Antiproliferative activity against human A431 cells after 72 hrs by oxyluciferin luminescence assay; settings: A-431, 72 h
HCT-116 = test: Antiproliferative activity against human HCT116 cells after 72 hrs by oxyluciferin luminescence assay; settings: HCT-116, 72 h
RKO = test: Antiproliferative activity against human RKO cells after 72 hrs by oxyluciferin luminescence assay
[1] = Antiproliferative activity against human TOV21G cells after 72 hrs by oxyluciferin luminescence assay
CCRF-CEM = test: Antiproliferative activity against human CCRF-CEM cells after 72 hrs by oxyluciferin luminescence assay
[2] = Antiproliferative activity against human RPMI8266 cells after 72 hrs by oxyluciferin luminescence assay; settings: RPMI8266, 72 h

Row | Compound | IC50 (A-431) [nM] | IC50 (HCT-116) [nM] | IC50 (RKO) [nM] | IC50 [1] [nM] | IC50 (CCRF-CEM) [nM] | IC50 [2] [nM]
1 | CCCCCCCCCC(=O)N[C@@H](CCCc1ccccc1)C(=O)N[C@H]1/C=C/CCNC(=O)/C=C/[C@H](C(C)C)NC1=O | 31.7 | 40.6 | 39.8 | 8.5 | 9.4 | 23.5
2 | CCCCCCCCCC(=O)N[C@@H](CC1CCCCC1)C(=O)N[C@H]1/C=C/CCNC(=O)/C=C/[C@H](C(C)C)NC1=O | 52.8 | 38.6 | 35.1 | 48.9 | 21.4 | 21
3 | CCCCCCCCCC(=O)N[C@@H](Cc1ccccc1F)C(=O)N[C@H]1/C=C/CCNC(=O)/C=C/[C@H](C(C)C)NC1=O | 14.9 | 7.1 | 6.8 | 8.2 | 3.3 | 5.6
4 | CCCCCCCCCC(=O)N[C@@H](Cc1cccc(F)c1)C(=O)N[C@H]1/C=C/CCNC(=O)/C=C/[C@H](C(C)C)NC1=O | 27.7 | 15 | 11.8 | 21.1 | 5.5 | 8.8
5 | CCCCCCCCCC(=O)N[C@@H](Cc1ccc(F)cc1)C(=O)N[C@H]1/C=C/CCNC(=O)/C=C/[C@H](C(C)C)NC1=O | 33.2 | 23.1 | 14.8 | 19 | 4.9 | 8.6
6 | CCCCCCCCCC(=O)N[C@@H](Cc1ccccc1Cl)C(=O)N[C@H]1/C=C/CCNC(=O)/C=C/[C@H](C(C)C)NC1=O | 9.9 | 8.7 | 7.4 | 7.1 | 8.2 | 8.8
7 | CCCCCCCCCC(=O)N[C@@H](Cc1cccc(Cl)c1)C(=O)N[C@H]1/C=C/CCNC(=O)/C=C/[C@H](C(C)C)NC1=O | 18.4 | 15.6 | 14.9 | 13.8 | 5.2 | 9.4
8 | CCCCCCCCCC(=O)N[C@@H](Cc1ccc(Cl)cc1)C(=O)N[C@H]1/C=C/CCNC(=O)/C=C/[C@H](C(C)C)NC1=O | 23.3 | 21.7 | 19.6 | 12.3 | 4.5 | 12
9 | CCCCCCCCCC(=O)N[C@@H](Cc1ccccc1Br)C(=O)N[C@H]1/C=C/CCNC(=O)/C=C/[C@H](C(C)C)NC1=O | 13.4 | 13.4 | 13 | 9.6 | 3.9 | 9.4
10 | CCCCCCCCCC(=O)N[C@@H](Cc1cccc(Br)c1)C(=O)N[C@H]1/C=C/CCNC(=O)/C=C/[C@H](C(C)C)NC1=O | 15.5 | 18 | 16.3 | 12.8 | 4.6 | 9.6
11 | CCCCCCCCCC(=O)N[C@@H](Cc1ccc(Br)cc1)C(=O)N[C@H]1/C=C/CCNC(=O)/C=C/[C@H](C(C)C)NC1=O | 25.6 | 33.4 | 33.7 | 24.1 | 18.4 | 28.3
12 | CCCCCCCCCC(=O)N[C@@H](Cc1ccccc1C)C(=O)N[C@H]1/C=C/CCNC(=O)/C=C/[C@H](C(C)C)NC1=O | 8.9 | 12 | 9.5 | 6.2 | 3.6 | 8.8
13 | CCCCCCCCCC(=O)N[C@@H](Cc1cccc(C)c1)C(=O)N[C@H]1/C=C/CCNC(=O)/C=C/[C@H](C(C)C)NC1=O | 6.9 | 7 | 7.3 | 6.2 | 3.5 | 8.4
14 | CCCCCCCCCC(=O)N[C@@H](Cc1ccc(C)cc1)C(=O)N[C@H]1/C=C/CCNC(=O)/C=C/[C@H](C(C)C)NC1=O | 18.9 | 28.1 | 15.5 | 9.1 | 1.9 | 4.8
15 | CCCCCCCCCC(=O)N[C@@H](Cc1ccc(O)cc1)C(=O)N[C@H]1/C=C/CCNC(=O)/C=C/[C@H](C(C)C)NC1=O | 134 | 68.5 | 43.7 | 151 | 32.3 | 28.3
16 | CCCCCCCCCC(=O)N[C@@H](Cc1ccccn1)C(=O)N[C@H]1/C=C/CCNC(=O)/C=C/[C@H](C(C)C)NC1=O | 23.5 | 19.2 | 18.2 | 10.7 | 8.6 | 15
17 | CCCCCCCCCC(=O)N[C@@H](Cc1cccnc1)C(=O)N[C@H]1/C=C/CCNC(=O)/C=C/[C@H](C(C)C)NC1=O | 24.4 | 29.4 | 17.1 | 5.1 | 27.5 | 15.5
18 | CCCCCCCCCC(=O)N[C@@H](Cc1ccncc1)C(=O)N[C@H]1/C=C/CCNC(=O)/C=C/[C@H](C(C)C)NC1=O | 50.3 | 56.3 | 47.3 | 14.5 | 35.7 | 72.6
19 | CCCCCCCCCC(=O)N[C@@H](Cc1ccc(-c2ccccc2)cc1)C(=O)N[C@H]1/C=C/CCNC(=O)/C=C/[C@H](C(C)C)NC1=O | 21.9 | 27.1 | 30.4 | 16.8 | 12.3 | 19.7

Source: ChEMBL document CHEMBL3627672, “Structure-activity relationship study of syringolin A as a potential anticancer agent” (Bioorg Med Chem Lett, 2015)
